Results on three molecules are retold here after PubChem BioAssay AID435004 (Broad Institute, 2010).

Inconclusive results are not listed. Calls of active or inactive are those of the source.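 Rule for the calls: active = EC50 at most a set number of log units above the top tested dose; inconclusive = flat curve fit with activity between 30% and 70%, or poor fit; inactive = EC50 further above the top dose than that.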 A value given as a limit tells only on which side of the number the result lay.

In this experiment the test system is NIH3T3-HGL HSF1 luciferase reporter, MG132, 8 h. Put plainly: enhancement of HSF1-driven luciferase signal – cell-based, NIH3T3, luminescence, dose retest, confirmation (AID 435004).

The EC50 is the concentration at which the effect is half-maximal. `CC(C)CCN=CC1=C(O)CC(c2ccccc2)CC1=O` (stereo not drawn): the EC50 is > 26 µM (inactive). On to `O=C1CC(c2ccccc2Cl)CC(O)=C1C=Nc1ccccc1` (stereo not drawn), for which the EC50 is 4.71 µM. In the case of `C#CCOCCOCCOCCNc1nc(N2CCN(C(=O)[C@H](Cc3cc4ccccc4[nH]3)n3cc(C(N)CC(C)C)nn3)CC2)nc(N2CCN(C(=O)[C@H](CCC(=O)O)n3cc(C(N)[C@H](C)CC)nn3)CC2)n1` (stereo partly drawn), the EC50 is > 26 µM (inactive).
